Data from ChEMBL document CHEMBL3272136, “A new series of cardioselective adrenergic beta-receptor blocking compounds. 1-(2-Acyl-4-acylaminophenoxy)-3-isopropylaminopropan-2-ols” (1976).

Columns and labels:
[1] = system: Felis catus; assay: In vivo beta-1 adrenergic receptor blocking activity in iv dosed cat assessed as half dose required for desensitizing isoproterenol-induced tachycardia after 3.5 mins; format: functional
[2] = system: Felis catus; assay: In vivo beta-2 adrenergic receptor blocking activity in iv dosed cat assessed as half dose required for desensitizing isoproterenol-induced diastolic hypotensive response after 3.5 mins; format: functional
[3] = system: Felis catus; assay: Ratio of in vivo beta-2 adrenergic receptor blocking activity in iv dosed cat assessed as half dose required for desensitizing isoproterenol-induced diastolic hypotensive response to in vivo beta-1 adrenergic receptor blocking activity in iv dosed cat assessed as half dose required for desensitizing isoproterenol-induced tachycardia; format: functional
[4] = system: Canis familiaris; assay: Antiarrhythmic activity in iv dosed dog assessed as dose required for reversal of ouabain-induced cardiac arrhythmia; format: functional, Canis lupus familiaris, Heart

Structure (SMILES)	Activity [1]	Activity [2]	Ratio [3]	Activity [4]
CCCCC(=O)Nc1ccc(OCC(O)CNC(C)C)c(C(C)=O)c1 (centres undefined)	0.033 mg/kg	0.89 mg/kg	27	4.8 mg/kg
CCCCCC(=O)Nc1ccc(OCC(O)CNC(C)C)c(C(C)=O)c1 (centres undefined)	0.029 mg/kg	0.85 mg/kg	29.31	3.2 mg/kg
CCCCCCC(=O)Nc1ccc(OCC(O)CNC(C)C)c(C(C)=O)c1 (centres undefined)	0.04 mg/kg	0.5 mg/kg	12.5	2.7 mg/kg
CCC(=O)Nc1ccc(OCC(O)CNC(C)C)c(C(=O)CC)c1 (centres undefined)	0.026 mg/kg	0.41 mg/kg	15.77	6.4 mg/kg
CCCC(=O)Nc1ccc(OCC(O)CNC(C)C)c(C(=O)CC)c1 (centres undefined)	0.079 mg/kg	1.12 mg/kg	14.18	6.1 mg/kg
CCCC(=O)Nc1ccc(OCC(O)CNC(C)C)c(C(=O)CCC)c1 (centres undefined)	0.23 mg/kg	4.78 mg/kg	20.78	3.5 mg/kg
CC(=O)c1cc(NC(=O)C(C)C)ccc1OCC(O)CNC(C)C (centres undefined)	0.1 mg/kg	1.85 mg/kg	18.5	17.2 mg/kg
CC(=O)c1cc(NC(=O)CC(C)C)ccc1OCC(O)CNC(C)C (centres undefined)	0.11 mg/kg	2.1 mg/kg	19.09	3.8 mg/kg
CC(=O)c1cc(NC(=O)Cc2ccccc2)ccc1OCC(O)CNC(C)C (centres undefined)	0.03 mg/kg	0.16 mg/kg	5.33	12.6 mg/kg
CC(=O)c1cc(NC(=O)c2ccccc2)ccc1OCC(O)CNC(C)C (centres undefined)	0.54 mg/kg	1 mg/kg	–	5.8 mg/kg
CCC(=O)Nc1ccc(OCC(O)CNC(C)C)c(C(C)=O)c1 (racemic)	0.063 mg/kg	0.52 mg/kg	8.25	22.5 mg/kg
CCCCCCCC(=O)Nc1ccc(OCC(O)CNC(C)C)c(C(C)=O)c1 (racemic)	0.05 mg/kg	0.692 mg/kg	13.84	3.9 mg/kg
CCCC(=O)Nc1ccc(OCC(O)CNC(C)C)c(C(C)=O)c1 (centres undefined) [ACEBUTOLOL]	0.13 mg/kg	2.6 mg/kg	20	8.1 mg/kg
CC(=O)Nc1ccc(OCC(O)CNC(C)C)c(C(C)=O)c1 (centres undefined) [DIACETOLOL]	0.089 mg/kg	0.32 mg/kg	3.59	>15 mg/kg
CC(=O)Nc1ccc(OCC(O)CNC(C)C)cc1 (centres undefined) [PRACTOLOL]	0.158 mg/kg	1.6 mg/kg	10.13	>35 mg/kg
